Reference: the supplement of paper PMC10307832

Columns and labels:
Test in all cases: relative viability (nuclei count vs DMSO), 5 days (fraction); higher = more cells survive
XMD13-2 + Pemetrexed = compound: C1CC1C(=O)NC2=NNC3=C2C=CC(=C3)C4=CC(=CC=C4)C(=O)NC5CC5 [XMD13-2] + Nc1nc2[nH]cc(CCc3ccc(C(=O)N[C@@H](CCC(=O)O)C(=O)O)cc3)c2c(=O)[nH]1 [Pemetrexed] (partner 0.2 µM)
How it was run: (§1)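 A single step with final 0.05% Triton X-100, 1% formaldehyde and 1 ug/ml Hoechst fixed the cells and stained nuclei 5 days after treatment. Lung cancer cell lines in 1536-well plates had been treated by pin tool the day after seeding with one drug alone or a fixed anchor-drug dose plus five library-drug doses (not always all listed) in √10 steps, and nuclei were counted on 4× images. Relative viability is the ratio of nuclei in treated wells to nuclei in vehicle wells, taken as the median of duplicate plates.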

Dasatinib + Foretinib = compound: Cc1nc(Nc2ncc(C(=O)Nc3c(C)cccc3Cl)s2)cc(N2CCN(CCO)CC2)n1 [Dasatinib] + COc1cc2c(Oc3ccc(NC(=O)C4(C(=O)Nc5ccc(F)cc5)CC4)cc3F)ccnc2cc1OCCCN1CCOCC1 [Foretinib] (partner 0.25 µM)
How it was run: as §1

XMD13-2 + Pictilisib = compound: C1CC1C(=O)NC2=NNC3=C2C=CC(=C3)C4=CC(=CC=C4)C(=O)NC5CC5 [XMD13-2] + CS(=O)(=O)N1CCN(Cc2cc3nc(-c4cccc5[nH]ncc45)nc(N4CCOCC4)c3s2)CC1 [Pictilisib] (partner 1 µM)
How it was run: as §1

Dasatinib + Crizotinib = compound: Cc1nc(Nc2ncc(C(=O)Nc3c(C)cccc3Cl)s2)cc(N2CCN(CCO)CC2)n1 [Dasatinib] + C[C@@H](Oc1cc(-c2cnn(C3CCNCC3)c2)cnc1N)c1c(Cl)ccc(F)c1Cl [Crizotinib] (partner 1 µM)
How it was run: as §1

Cell Line	relative viability (XMD13-2 + Pemetrexed; first compound 0.05 µM)	relative viability (XMD13-2 + Pemetrexed; first compound 0.1581 µM)	relative viability (XMD13-2 + Pemetrexed; first compound 0.5 µM)	relative viability (XMD13-2 + Pemetrexed; first compound 1.581 µM)	relative viability (XMD13-2 + Pemetrexed; first compound 5 µM)	relative viability (Dasatinib + Foretinib; first compound 0.005 µM)	relative viability (Dasatinib + Foretinib; first compound 0.01581 µM)	relative viability (Dasatinib + Foretinib; first compound 0.05 µM)	relative viability (Dasatinib + Foretinib; first compound 0.1581 µM)	relative viability (Dasatinib + Foretinib; first compound 0.5 µM)	relative viability (XMD13-2 + Pictilisib; first compound 0.05 µM)	relative viability (XMD13-2 + Pictilisib; first compound 0.1581 µM)	relative viability (XMD13-2 + Pictilisib; first compound 0.5 µM)	relative viability (XMD13-2 + Pictilisib; first compound 1.581 µM)	relative viability (XMD13-2 + Pictilisib; first compound 5 µM)	relative viability (Dasatinib + Crizotinib; first compound 0.005 µM)	relative viability (Dasatinib + Crizotinib; first compound 0.01581 µM)	relative viability (Dasatinib + Crizotinib; first compound 0.05 µM)	relative viability (Dasatinib + Crizotinib; first compound 0.1581 µM)	relative viability (Dasatinib + Crizotinib; first compound 0.5 µM)
NCI-H1563	0.76	0.806	0.741	0.75	0.913	0.82	0.751	0.746	0.578	0.517	0.581	0.665	0.737	0.651	0.605	0.803	0.673	0.679	0.592	0.577
NCI-H1650	0.351	0.388	0.348	0.418	0.395	0.877	0.64	0.635	0.247	0.262	0.687	0.452	0.644	0.542	0.541	0.801	0.619	0.456	0.303	0.239
NCI-H1651	0.607	0.56	0.577	0.647	0.775	0.81	0.666	0.673	0.646	0.445	0.819	0.477	0.661	0.64	0.548	0.874	0.776	0.841	0.768	0.704
NCI-H1666	0.863	0.919	0.875	0.884	0.946	1.12	0.989	1.07	0.862	0.425	0.566	0.479	0.59	0.349	0.492	1.01	0.878	0.783	0.561	0.247
NCI-H1734	0.41	0.422	0.398	0.412	0.386	0.743	0.613	0.586	0.427	0.367	0.558	0.45	0.444	0.423	0.389	0.553	0.485	0.515	0.301	0.35
NCI-H1755	0.418	0.455	0.473	0.456	0.396	0.778	0.706	0.617	0.463	0.185	0.548	0.411	0.48	0.315	0.496	0.696	0.657	0.365	0.202	0.174
NCI-H1915	0.504	0.509	0.544	0.504	0.513	1.05	0.804	0.957	0.431	0.298	0.981	0.884	1.07	0.9	0.919	0.828	0.764	0.638	0.284	0.24
NCI-H1944	0.74	0.573	0.622	0.875	0.642	0.849	0.684	0.701	0.291	0.21	0.352	0.345	0.357	0.373	0.333	1.06	0.847	0.779	0.327	0.233
